Experimental data: article PMC9732152 (The Laryngoscope, 2022)
“Also recorded” adds a separate entry of the source. Where a name gives a salt, the structure may show the parent alone. Square brackets hold non-standard residues; d marks the D form. Peptide text beside a SMILES is read from it. * marks the point of attachment. Sta = CC(C)C[C@H](N)[C@@H](O)CC(=O)O; Isovaleryl = CC(C)CC(=O)*

Legend:
[1] = tested on: pepsin-mediated laryngeal damage; assay: Laryngopharyngeal reflux mouse model; assay type: in vivo, female Jackson A/J mice
porcine pepsin = porcine pepsin (Sus scrofa, UniProt P00791); assay: Fluorescence polarization peptic activity assay with casein-Alexa647 substrate; assay type: biochemical; settings: for inhibition of pepsin (IC50): 200nM casein-Alexa647 probe, 0.01U/μL pepsin, 5% DMSO, 0.1 M HCl pH 1
porcine pepsin, sequence (P00791 60-385): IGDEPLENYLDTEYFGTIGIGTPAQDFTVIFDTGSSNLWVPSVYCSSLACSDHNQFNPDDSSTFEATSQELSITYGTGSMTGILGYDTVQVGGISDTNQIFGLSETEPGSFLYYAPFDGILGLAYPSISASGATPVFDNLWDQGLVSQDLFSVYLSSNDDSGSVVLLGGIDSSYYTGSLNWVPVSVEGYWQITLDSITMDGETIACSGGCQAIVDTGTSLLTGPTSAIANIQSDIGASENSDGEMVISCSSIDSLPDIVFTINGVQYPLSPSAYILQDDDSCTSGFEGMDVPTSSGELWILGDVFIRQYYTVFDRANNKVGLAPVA

porcine pepsin A = porcine pepsin A (Sus scrofa, UniProt P00791); assay type: binding; settings: 100nM pepstatin-Alexa647 probe, 0.03U/ul porcine pepsin A, 37.5% DMSO, 0.1 M HCl pH 1
porcine pepsin A, sequence (P00791 60-385): as above

[2] = cited from earlier work
pepsin = settings: cited from earlier work
[3] = aerosol with saline (solvent) instillation
[4] = gavage with saline (solvent) instillation

SMILES | laryngeal epithelial histology/reactivity elicited by the drug itself [1, 3] | apoptosis in laryngeal epithelium ([1]; aerosol, inhaled mass 12mg/kg/day darunavir, pepsin-pH7 instillation) | laryngeal epithelial histology/reactivity elicited by the drug itself [1, 4] | inhibition of pepsin (IC50) (porcine pepsin) | IC50 for pepsin compared with the other inhibitors (porcine pepsin; comparison among the HIV protease inhibitors tested) | binding to pepsin (porcine pepsin A) | known side effects and interactions [2] | affinity for pepsin (pepsin)
CC(C)CN(C[C@@H](O)[C@H](Cc1ccccc1)NC(=O)O[C@H]1CO[C@H]2OCC[C@H]21)S(=O)(=O)c1ccc(N)cc1 [darunavir, darunavir ethanolate] | absent | no apoptosis was observed | mild reactivity (rare intraepithelial lymphocytes) | inhibited pepsin at low micromolar concentrations; also recorded: low micromolar range | lowest IC50 | bound |  | 
CC(C)c1nc(CN(C)C(=O)N[C@H](C(=O)N[C@@H](Cc2ccccc2)C[C@H](O)[C@H](Cc2ccccc2)NC(=O)OCc2cncs2)C(C)C)cs1 [ritonavir] |  |  |  |  |  | bound | minimal side effects (diarrhea, nausea and vomiting) | 
CC(C)(C)NC(=O)[C@@H]1C[C@@H]2CCCC[C@@H]2CN1C[C@@H](O)[C@H](Cc1ccccc1)NC(=O)[C@H](CC(N)=O)NC(=O)c1ccc2ccccc2n1 [saquinavir, saquinavir mesylate] |  |  |  | inhibited pepsin at low micromolar concentrations; also recorded: low micromolar range |  | bound | QT prolongation, heart block, high blood lipids and liver problems | 
CC(C)CN(C[C@@H](OP(=O)(O)O)[C@H](Cc1ccccc1)NC(=O)O[C@H]1CCOC1)S(=O)(=O)c1ccc(N)cc1 [fosamprenavir] | normal histology |  | normal histology |  |  |  |  | 
CC(C)CN(C[C@@H](O)[C@H](Cc1ccccc1)NC(=O)O[C@H]1CCOC1)S(=O)(=O)c1ccc(N)cc1 [amprenavir] |  |  |  | inhibited pepsin at low micromolar concentrations; also recorded: low micromolar range |  | bound | minimal side effects (diarrhea, nausea and vomiting) | 
CC(C)CC(=O)N[C@H](C(=O)N[C@H](C(=O)N[C@@H](CC(C)C)[C@@H](O)CC(=O)N[C@@H](C)C(=O)N[C@@H](CC(C)C)[C@@H](O)CC(=O)O)C(C)C)C(C)C [pepstatin, pepstatin A] (Isovaleryl-VV[Sta]A[Sta]-OH) |  |  |  |  |  |  |  | sub-nanomolar
